Measured values: PMC10657792, “Downstream Allosteric Modulation of NMDA Receptors by 3-Benzazepine Derivatives” (Molecular Neurobiology, 2023)
Converted amounts (≈) assume the structure as drawn.

What was measured:
[1] = biological target: GluN1a wt/ GluN2B F114A (Rattus norvegicus, UniProt P35439+Q00960, F114A); experiment: TEVC recording in X. laevis oocytes, GluN2B mutant screening; assay type: cell-based; settings: fitted curve
[2] = biological target: GluN1b wt/ GluN2B E236A (Rattus norvegicus, UniProt P35439+Q00960, E236A); experiment: as above; assay type: cell-based
Procedure: (§1) Single point mutations were incorporated into template DNA (GluN1-1b wt/ pSGEM and GluN2B wt/ pSGEM) by using the QuikChange II XL site-directed mutagenesis kit (Agilent Technologies, Germany). Mutagenesis primers were designed using the QuikChange Primer Design Program (Agilent) and provided by Microsynth (Microsynth AG, Balgach, Switzerland). For mutation of the desired amino acid in the gene, PCR amplification was performed with the respective mutagenesis primers (Eppendorf MasterCycler Gradient, Eppendorf Hamburg, Germany). Mutations were verified by automated DNA sequencing. Constructs were linearized with PacI (GluN1) or NheI (GluN2B). cRNA was prepared byin vitrotranscription using the mMessage mMachine T7 kit (Life Technologies, Darmstadt, Germany).
(§2) The NMDAR was expressed in stage V and VI oocytes originated from X. laevis. Oocytes were provided by Ecocyte Bioscience (Dortmund, Germany), and equimolar amounts of wild-type and mutated GluN1 and GluN2B cRNA were injected (0.8 ng each). The oocytes were incubated in Barth’s solution, containing (mmol l^−1): 88 NaCl, 1 KCl, 0.4 CaCl2, 0.33 Ca(NO3)2, 0.6 MgSO4, 5 TRIS–HCl, 2.4 NaHCO3, supplemented with 80 mg l^−1 theophylline, 63 mg l^−1 benzylpenicillin, 40 mg l^−1 streptomycin, and 100 mg l^−1 gentamycin and maintained at 18 °C until usage. After injection, the oocytes were incubated for 5 days at 18 °C. Subsequently, the activity of the expressed NMDARs in the oocytes was recorded by two-electrode voltage clamp (TEVC).
(§3) The compounds were retrieved as 10 mM stock solutions in DMSO and were subsequently diluted with agonist solution and adjusted to 0.1% DMSO concentration. Inhibition of each compound was measured via TEVC in X. laevis oocytes at room temperature using a Turbo Tec 10CX amplifier (NPI electronic, Tamm, Germany), NI USB 6221 DA/AD Interface (National Instruments, Austin, USA), and GePulse Software (Dr. Michael Pusch, Genova, Italy). Ba^2+-Ringer, consisting of 10 mM HEPES, 90 mM NaCl, 1 mM KCl, and 1.5 mM BaCl2, adjusted to pH 7.4, was used for TEVC measurements. Agonist solution containing 10 µM glycine and 10 µM (S)-glutamate was prepared in Ba^2+-Ringer, and the measurements were performed at a holding potential of − 70 mV, using electrodes with a glass capillary filled with 3 M KCl and a resistance between 0.5 and 1.5 MΩ. The compounds were tested by applying ascending concentrations, ranging from 1 to 30,000 nM, in at least six oocytes. Example traces for all recorded conditions can be found in Supplementary Figs. S2–S9.
(§4) TEVC data were analyzed using Ana (Dr. Michael Pusch, Genova, Italy), and statistics were performed using OriginPro 2020 (OriginLab Corporation, Northampton, USA). The inhibitory effect of each compound is calculated using the following equation: inhibition=1-Ic-Ih/Ia-Ih where Ih describes the current in the absence of agonists; Ia represents the steady-state current in the presence of the agonists; and Ic is defined as the steady-state after binding of agonist and compound. All dose response curves are fitted to the following logistic equation: y=A1-A2/1+x/x0^p+A2 where A1 describes the minimal inhibition of a compound and was set to 0; A2 represents the maximal inhibition of a compound; p is the slope of the curve; x0 is defined as the concentration at half-maximal inhibition; and x is the tested concentration. Data were statistically analyzed by one-way ANOVA and Tukey post-hoc mean comparison test in OriginPro 2020 (OriginLab Corporation, Northampton, USA). p values are indicated by * for p < 0.05, ** for p < 0.01, and *** for p < 0.001.

[3] = biological target: GluN1b wt/ GluN2B N192A (Rattus norvegicus, UniProt P35439+Q00960, N192A); experiment: as above; assay type: cell-based
Procedure: as §1, §2, §3, §4

[4] = biological target: GluN1b wt/ GluN2B F194A (Rattus norvegicus, UniProt P35439+Q00960, F194A); experiment: as above; assay type: cell-based
Procedure: as §1, §2, §3, §4

[5] = biological target: GluN1a wt/ GluN2B F194A (Rattus norvegicus, UniProt P35439+Q00960, F194A); experiment: as above; assay type: cell-based; settings: fitted curve
Procedure: as §1, §2, §3, §4

[6] = biological target: GluN1b wt/ GluN2B N192A/F194A (Rattus norvegicus, UniProt P35439+Q00960, F194A/N192A); experiment: as above; assay type: cell-based
Procedure: as §1, §2, §3, §4

[7] = biological target: GluN1b wt/ GluN2B Q110A (Rattus norvegicus, UniProt P35439+Q00960, Q110A); experiment: as above; assay type: cell-based
Procedure: as §1, §2, §3, §4

[8] = biological target: GluN1a wt/ GluN2B E236A (Rattus norvegicus, UniProt P35439+Q00960, E236A); experiment: as above; assay type: cell-based; settings: fitted curve
[9] = Solubility limit in TEVC compound solution; assay type: physicochemical; settings: higher concentrations could not be tested in TEVC
[10] = agonists 10 µM glycine + 10 µM (S)-glutamate
[11] = agonists 10 µM glycine + 10 µM (S)-glutamate, fitted curve

Chain of GluN1b wt/ GluN2B E236A (Q00960 27-1482 E236A, other chains not shown): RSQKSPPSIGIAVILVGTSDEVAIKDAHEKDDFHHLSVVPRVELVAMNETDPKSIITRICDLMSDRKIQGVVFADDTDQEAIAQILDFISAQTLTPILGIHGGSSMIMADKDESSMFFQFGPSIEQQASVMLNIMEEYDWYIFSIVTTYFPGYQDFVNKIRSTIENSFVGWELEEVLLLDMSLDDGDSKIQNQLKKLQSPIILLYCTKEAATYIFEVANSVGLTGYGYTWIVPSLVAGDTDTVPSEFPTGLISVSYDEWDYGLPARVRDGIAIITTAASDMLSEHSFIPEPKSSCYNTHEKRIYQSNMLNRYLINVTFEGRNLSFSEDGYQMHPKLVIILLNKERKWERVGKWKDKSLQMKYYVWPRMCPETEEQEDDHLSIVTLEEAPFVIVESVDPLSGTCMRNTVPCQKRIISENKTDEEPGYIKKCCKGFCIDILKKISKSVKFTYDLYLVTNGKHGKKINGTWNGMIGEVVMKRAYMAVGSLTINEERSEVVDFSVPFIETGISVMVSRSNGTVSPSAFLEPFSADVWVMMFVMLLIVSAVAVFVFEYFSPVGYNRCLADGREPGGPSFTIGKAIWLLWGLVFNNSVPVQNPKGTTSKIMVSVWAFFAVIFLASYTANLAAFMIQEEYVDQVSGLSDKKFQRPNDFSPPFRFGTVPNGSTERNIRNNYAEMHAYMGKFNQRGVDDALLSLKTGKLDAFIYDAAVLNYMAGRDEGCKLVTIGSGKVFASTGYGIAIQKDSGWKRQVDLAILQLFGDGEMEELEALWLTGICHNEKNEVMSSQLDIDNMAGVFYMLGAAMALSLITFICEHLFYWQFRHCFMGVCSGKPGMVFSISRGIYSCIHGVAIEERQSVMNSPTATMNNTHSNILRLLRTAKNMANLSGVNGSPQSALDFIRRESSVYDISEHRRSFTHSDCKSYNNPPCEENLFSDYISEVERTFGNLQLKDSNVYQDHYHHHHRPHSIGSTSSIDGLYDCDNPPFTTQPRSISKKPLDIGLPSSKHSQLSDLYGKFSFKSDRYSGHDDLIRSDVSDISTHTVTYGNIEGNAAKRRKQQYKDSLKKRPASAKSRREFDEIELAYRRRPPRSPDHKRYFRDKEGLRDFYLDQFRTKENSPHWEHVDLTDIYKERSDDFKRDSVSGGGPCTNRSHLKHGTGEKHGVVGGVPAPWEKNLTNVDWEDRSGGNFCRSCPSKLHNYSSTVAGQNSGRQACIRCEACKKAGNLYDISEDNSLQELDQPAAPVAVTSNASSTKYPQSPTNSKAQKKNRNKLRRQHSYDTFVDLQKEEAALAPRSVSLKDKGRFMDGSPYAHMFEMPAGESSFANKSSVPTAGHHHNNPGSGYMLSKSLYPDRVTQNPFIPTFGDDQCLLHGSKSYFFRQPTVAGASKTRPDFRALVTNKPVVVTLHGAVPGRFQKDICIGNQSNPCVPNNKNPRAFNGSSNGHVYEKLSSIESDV
Chain of GluN1b wt/ GluN2B Q110A (Q00960 27-1482 Q110A, other chains not shown): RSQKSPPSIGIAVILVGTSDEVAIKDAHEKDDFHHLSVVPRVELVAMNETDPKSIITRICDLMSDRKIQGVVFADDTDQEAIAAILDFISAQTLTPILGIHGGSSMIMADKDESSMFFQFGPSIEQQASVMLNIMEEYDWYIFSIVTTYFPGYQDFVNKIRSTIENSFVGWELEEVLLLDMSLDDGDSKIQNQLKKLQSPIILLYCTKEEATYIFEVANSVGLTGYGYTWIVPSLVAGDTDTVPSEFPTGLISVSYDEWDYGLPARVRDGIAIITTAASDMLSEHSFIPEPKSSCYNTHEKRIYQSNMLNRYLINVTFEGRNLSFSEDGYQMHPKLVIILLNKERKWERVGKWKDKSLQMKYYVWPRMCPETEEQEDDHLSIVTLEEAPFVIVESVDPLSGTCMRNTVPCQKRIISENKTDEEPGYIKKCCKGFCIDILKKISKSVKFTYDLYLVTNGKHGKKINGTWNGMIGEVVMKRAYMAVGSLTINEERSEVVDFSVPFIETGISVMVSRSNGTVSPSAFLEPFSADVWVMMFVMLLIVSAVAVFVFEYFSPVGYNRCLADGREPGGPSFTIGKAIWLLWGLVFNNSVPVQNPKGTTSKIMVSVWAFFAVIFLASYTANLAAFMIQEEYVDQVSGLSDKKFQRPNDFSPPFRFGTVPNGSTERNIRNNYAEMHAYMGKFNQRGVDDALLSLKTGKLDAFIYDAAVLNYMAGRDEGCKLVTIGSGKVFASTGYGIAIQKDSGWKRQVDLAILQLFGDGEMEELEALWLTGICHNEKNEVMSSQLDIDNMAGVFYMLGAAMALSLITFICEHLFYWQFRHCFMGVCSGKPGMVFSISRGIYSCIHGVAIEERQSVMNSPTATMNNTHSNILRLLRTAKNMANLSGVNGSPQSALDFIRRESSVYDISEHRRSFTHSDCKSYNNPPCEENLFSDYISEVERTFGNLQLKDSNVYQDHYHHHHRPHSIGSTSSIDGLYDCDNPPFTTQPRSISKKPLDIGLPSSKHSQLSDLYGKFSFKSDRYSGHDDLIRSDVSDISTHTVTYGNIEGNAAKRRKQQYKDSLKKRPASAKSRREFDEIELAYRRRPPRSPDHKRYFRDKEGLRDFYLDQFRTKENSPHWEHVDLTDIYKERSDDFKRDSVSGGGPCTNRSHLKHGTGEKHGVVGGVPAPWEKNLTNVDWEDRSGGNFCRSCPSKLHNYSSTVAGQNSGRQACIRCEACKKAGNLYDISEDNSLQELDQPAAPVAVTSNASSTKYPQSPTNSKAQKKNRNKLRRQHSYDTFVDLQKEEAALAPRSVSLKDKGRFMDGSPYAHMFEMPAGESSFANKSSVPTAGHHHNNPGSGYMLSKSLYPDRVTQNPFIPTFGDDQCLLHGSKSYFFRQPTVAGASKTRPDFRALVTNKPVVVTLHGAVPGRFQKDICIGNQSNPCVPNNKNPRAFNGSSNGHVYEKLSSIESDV
Chain of GluN1b wt/ GluN2B N192A (Q00960 27-1482 N192A, other chains not shown): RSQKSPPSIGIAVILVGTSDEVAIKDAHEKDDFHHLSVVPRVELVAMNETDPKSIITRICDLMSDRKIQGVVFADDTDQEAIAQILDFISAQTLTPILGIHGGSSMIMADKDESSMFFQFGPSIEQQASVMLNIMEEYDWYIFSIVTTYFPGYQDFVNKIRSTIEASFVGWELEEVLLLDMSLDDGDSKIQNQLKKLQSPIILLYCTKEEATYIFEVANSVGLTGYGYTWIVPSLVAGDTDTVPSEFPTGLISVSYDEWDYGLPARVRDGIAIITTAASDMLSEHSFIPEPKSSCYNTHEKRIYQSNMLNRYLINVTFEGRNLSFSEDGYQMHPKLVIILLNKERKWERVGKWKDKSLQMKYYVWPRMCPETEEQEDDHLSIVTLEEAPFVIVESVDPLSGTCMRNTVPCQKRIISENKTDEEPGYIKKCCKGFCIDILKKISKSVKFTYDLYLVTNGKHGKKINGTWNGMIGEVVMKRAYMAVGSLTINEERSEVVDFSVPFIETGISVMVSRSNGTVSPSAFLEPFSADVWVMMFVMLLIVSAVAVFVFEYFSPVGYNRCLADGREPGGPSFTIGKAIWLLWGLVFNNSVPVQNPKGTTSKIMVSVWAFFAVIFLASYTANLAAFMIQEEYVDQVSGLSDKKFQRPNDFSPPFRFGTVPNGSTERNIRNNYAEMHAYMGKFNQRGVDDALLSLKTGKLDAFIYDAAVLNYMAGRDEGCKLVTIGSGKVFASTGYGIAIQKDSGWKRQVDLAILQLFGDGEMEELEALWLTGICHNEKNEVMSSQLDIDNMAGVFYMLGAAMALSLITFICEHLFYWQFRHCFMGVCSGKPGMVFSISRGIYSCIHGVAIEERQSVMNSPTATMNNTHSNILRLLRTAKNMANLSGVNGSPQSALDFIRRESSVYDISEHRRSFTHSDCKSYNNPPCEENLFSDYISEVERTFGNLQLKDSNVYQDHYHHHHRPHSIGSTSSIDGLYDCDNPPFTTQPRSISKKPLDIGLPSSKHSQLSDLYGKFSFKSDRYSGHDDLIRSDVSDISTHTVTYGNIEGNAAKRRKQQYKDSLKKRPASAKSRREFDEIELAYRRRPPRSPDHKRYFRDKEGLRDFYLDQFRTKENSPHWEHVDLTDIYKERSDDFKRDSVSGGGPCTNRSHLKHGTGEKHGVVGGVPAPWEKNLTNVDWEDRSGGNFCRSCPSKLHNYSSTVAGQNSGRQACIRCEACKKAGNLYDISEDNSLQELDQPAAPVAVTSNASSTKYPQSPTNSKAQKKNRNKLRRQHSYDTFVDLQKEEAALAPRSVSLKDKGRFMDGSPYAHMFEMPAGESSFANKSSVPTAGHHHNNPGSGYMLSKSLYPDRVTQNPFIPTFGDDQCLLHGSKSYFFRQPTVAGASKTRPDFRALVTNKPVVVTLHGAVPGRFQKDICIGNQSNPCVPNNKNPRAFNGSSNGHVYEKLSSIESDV

- IC50 [1, 10]: 6.58 µM
- Hill coefficient [1]: 0.8
- inhibition at 1 µM ([2]; GluN1-1b/E236A, compound concentration 1 μM, single oocytes): 39.5%
- inhibition at 10 µM ([2]; GluN1-1b/E236A, compound concentration 10 μM, single oocytes): 51.9%
- inhibition at 30 µM ([2]; GluN1-1b/E236A, compound concentration 30 μM, single oocytes): 61.6%
- IC50 [2, 11]: 3.15 µM
- Hill coefficient ([2]; fitted curve): 0.6
- inhibition at 10 µM ([3]; GluN1-1b GluN2B N192A, compound concentration 10 μM, single oocytes): 69.9%
- inhibition at 30 µM ([3]; GluN1-1b GluN2B N192A, compound concentration 30 μM, single oocytes): 76.3%
- IC50 [3, 11]: 0.567 µM
- Hill coefficient ([3]; fitted curve): 1.3
- inhibition at 1 µM ([4]; GluN1-1b GluN2B F194A, compound concentration 1 μM, single oocytes): 39.3%
- inhibition at 30 µM ([4]; GluN1-1b GluN2B F194A, compound concentration 30 μM, single oocytes): 51.8%
- IC50 [4, 11]: 3.84 µM
- Hill coefficient ([4]; fitted curve): 0.5
- IC50 [5, 10]: 16.6 µM
- Hill coefficient [5]: 0.4
- inhibition at 1 µM ([6]; GluN1-1b GluN2B N192A/F194A, compound concentration 1 μM, single oocytes): 23.8%
- inhibition at 10 µM ([6]; GluN1-1b GluN2B N192A/F194A, compound concentration 10 μM, single oocytes): 35.6%
- inhibition at 30 µM ([6]; GluN1-1b GluN2B N192A/F194A, compound concentration 30 μM, single oocytes): 37%
- IC50 [6, 11]: 7.52 µM
- Hill coefficient ([6]; fitted curve): 0.3
- inhibition at 10 µM ([7]; GluN1-1b/Q110A, compound concentration 10 μM, single oocytes): 78.4%
- inhibition at 30 µM ([7]; GluN1-1b/Q110A, compound concentration 30 μM, single oocytes): 84.2%
- IC50 [7, 11]: 0.519 µM
- Hill coefficient ([7]; fitted curve): 1.2
- IC50 [8, 10]: 0.232 µM
- Hill coefficient [8]: 1.1
- solubility [9]: 30 µM (≈ 9.88 µg/mL)
Structure (SMILES): Oc1ccc2c(c1)CCN(CCCCc1ccccc1F)C[C@@H]2O [(R)-OF-NB1]
